Data reported in patent publication US12077503B2, “Substituted cyclic amides and their use as herbicides” (FMC CORPORATION, priority 2015, dated 2024).

Assays:
Test in all cases: Test C preemergence
Format in all cases: in vivo
Settings in all cases: scale 0 to 100, 0 no effect, 100 complete control
soybean (Glycine max) = tested on: soybean (Glycine max)
Method in brief: (§1)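 Assessment: visual, 13–15 d after treatment, 0 (no effect) to 100 (complete control) relative to controls. Treatment: preemergence to seeds in loam-sand soil, or postemergence to 1- to 4-leaf plants in peat-based medium. Formulation: non-phytotoxic solvent mixture with surfactant.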

corn (Zea mays) = tested on: corn (Zea mays)
Method in brief: as §1

[1] = tested on: nutsedge, yellow (yellow nutsedge, Cyperus esculentus)
Method in brief: as §1

[2] = tested on: barnyardgrass (Echinochloa crus-galli)
Method in brief: as §1

[3] = tested on: blackgrass (Alopecurus myosuroides)
Method in brief: as §1

[4] = tested on: ryegrass, Italian (Italian ryegrass, Lolium multiflorum)
Method in brief: as §1

[5] = tested on: lambsquarters (Chenopodium album)
Method in brief: as §1

[6] = tested on: ragweed (common ragweed, Ambrosia elatior)
Method in brief: as §1

[7] = tested on: foxtail, giant (giant foxtail, Setaria faberii)
Method in brief: as §1

[8] = tested on: velvetleaf (Abutilon theophrasti)
Method in brief: as §1

[9] = tested on: wheat (winter wheat, Triticum aestivum)
Method in brief: as §1

[10] = tested on: waterhemp (common waterhemp, Amaranthus rudis)
Method in brief: as §1

[11] = tested on: oilseed rape (Brassica napus)
Method in brief: as §1

[12] = tested on: morningglory (Ipomoea coccinea)
Method in brief: as §1

[13] = tested on: Galium (catchweed bedstraw, Galium aparine)
Method in brief: as §1

[14] = tested on: crabgrass, large (large crabgrass, Digitaria sanguinalis)
Method in brief: as §1

[15] = tested on: pigweed (Amaranthus retroflexus)
Method in brief: as §1

CN1CC(c2ccc(C(F)(F)F)c(F)c2)C(C(=O)Nc2ccccc2S(C)(=O)=O)C1=O (stereo not drawn) [Compound 397]
Plant response rating, Soybean (soybean (Glycine max); 62 g ai/ha): 0
Plant response rating, Soybean (soybean (Glycine max); 125 g ai/ha): 0
Plant response rating, Soybean (soybean (Glycine max); 250 g ai/ha): 20
Plant response rating, Corn (corn (Zea mays); 31 g ai/ha): 25
Plant response rating, Corn (corn (Zea mays); 62 g ai/ha): 15
Plant response rating, Corn (corn (Zea mays); 125 g ai/ha): 60
Plant response rating, Corn (corn (Zea mays); 250 g ai/ha): 75
Plant response rating, Nutsedge, Yellow ([1]; 31 g ai/ha): 0
Plant response rating, Nutsedge, Yellow ([1]; 62 g ai/ha): 10
Plant response rating, Nutsedge, Yellow ([1]; 125 g ai/ha): 50
Plant response rating, Nutsedge, Yellow ([1]; 250 g ai/ha): 70
Plant response rating, Barnyardgrass ([2]; 31 g ai/ha): 90
Plant response rating, Barnyardgrass ([2]; 62 g ai/ha): 95
Plant response rating, Barnyardgrass ([2]; 125 g ai/ha): 98
Plant response rating, Barnyardgrass ([2]; 250 g ai/ha): 98
Plant response rating, Blackgrass ([3]; 31 g ai/ha): 55
Plant response rating, Blackgrass ([3]; 62 g ai/ha): 70
Plant response rating, Blackgrass ([3]; 125 g ai/ha): 90
Plant response rating, Blackgrass ([3]; 250 g ai/ha): 90
Plant response rating, Ryegrass, Italian ([4]; 62 g ai/ha): 60
Plant response rating, Ryegrass, Italian ([4]; 125 g ai/ha): 60
Plant response rating, Ryegrass, Italian ([4]; 250 g ai/ha): 60
Plant response rating, Lambsquarters ([5]; 31 g ai/ha): 30
Plant response rating, Lambsquarters ([5]; 62 g ai/ha): 70
Plant response rating, Lambsquarters ([5]; 125 g ai/ha): 75
Plant response rating, Lambsquarters ([5]; 250 g ai/ha): 75
Plant response rating, Ragweed ([6]; 31 g ai/ha): 20
Plant response rating, Ragweed ([6]; 62 g ai/ha): 75
Plant response rating, Ragweed ([6]; 125 g ai/ha): 70
Plant response rating, Ragweed ([6]; 250 g ai/ha): 70
Plant response rating, Foxtail, Giant ([7]; 31 g ai/ha): 95
Plant response rating, Foxtail, Giant ([7]; 62 g ai/ha): 95
Plant response rating, Foxtail, Giant ([7]; 125 g ai/ha): 98
Plant response rating, Foxtail, Giant ([7]; 250 g ai/ha): 98
Plant response rating, Velvetleaf ([8]; 62 g ai/ha): 25
Plant response rating, Velvetleaf ([8]; 125 g ai/ha): 30
Plant response rating, Velvetleaf ([8]; 250 g ai/ha): 45
Plant response rating, Wheat ([9]; 62 g ai/ha): 45
Plant response rating, Wheat ([9]; 125 g ai/ha): 45
Plant response rating, Wheat ([9]; 250 g ai/ha): 70
Plant response rating, Waterhemp ([10]; 62 g ai/ha): 90
Plant response rating, Waterhemp ([10]; 125 g ai/ha): 98
Plant response rating, Waterhemp ([10]; 250 g ai/ha): 95
Plant response rating, Oilseed Rape ([11]; 31 g ai/ha): 20
Plant response rating, Oilseed Rape ([11]; 62 g ai/ha): 70
Plant response rating, Oilseed Rape ([11]; 125 g ai/ha): 80
Plant response rating, Oilseed Rape ([11]; 250 g ai/ha): 85
Plant response rating, Morningglory ([12]; 31 g ai/ha): 5
Plant response rating, Morningglory ([12]; 62 g ai/ha): 55
Plant response rating, Morningglory ([12]; 125 g ai/ha): 60
Plant response rating, Morningglory ([12]; 250 g ai/ha): 70
Plant response rating, Galium ([13]; 31 g ai/ha): 40
Plant response rating, Galium ([13]; 62 g ai/ha): 80
Plant response rating, Galium ([13]; 125 g ai/ha): 90
Plant response rating, Galium ([13]; 250 g ai/ha): 90
Plant response rating, Crabgrass, Large ([14]; 31 g ai/ha): 98
Plant response rating, Crabgrass, Large ([14]; 62 g ai/ha): 98
Plant response rating, Crabgrass, Large ([14]; 125 g ai/ha): 100
Plant response rating, Crabgrass, Large ([14]; 250 g ai/ha): 100
Plant response rating, Pigweed ([15]; 31 g ai/ha): 55
Plant response rating, Pigweed ([15]; 62 g ai/ha): 90
Plant response rating, Pigweed ([15]; 125 g ai/ha): 95
Plant response rating, Pigweed ([15]; 250 g ai/ha): 95

CN1CC(c2ccc(C(F)(F)F)cc2)C(C(=S)Nc2ccccc2F)C1=O (stereo not drawn) [Compound 450]
Plant response rating, Soybean (soybean (Glycine max); 62 g ai/ha): 5
Plant response rating, Soybean (soybean (Glycine max); 125 g ai/ha): 0
Plant response rating, Soybean (soybean (Glycine max); 250 g ai/ha): 0
Plant response rating, Corn (corn (Zea mays); 31 g ai/ha): 5
Plant response rating, Corn (corn (Zea mays); 62 g ai/ha): 5
Plant response rating, Corn (corn (Zea mays); 125 g ai/ha): 20
Plant response rating, Corn (corn (Zea mays); 250 g ai/ha): 65
Plant response rating, Nutsedge, Yellow ([1]; 31 g ai/ha): 0
Plant response rating, Nutsedge, Yellow ([1]; 62 g ai/ha): 0
Plant response rating, Nutsedge, Yellow ([1]; 125 g ai/ha): 0
Plant response rating, Nutsedge, Yellow ([1]; 250 g ai/ha): 0
Plant response rating, Barnyardgrass ([2]; 31 g ai/ha): 90
Plant response rating, Barnyardgrass ([2]; 62 g ai/ha): 90
Plant response rating, Barnyardgrass ([2]; 125 g ai/ha): 90
Plant response rating, Barnyardgrass ([2]; 250 g ai/ha): 95
Plant response rating, Blackgrass ([3]; 31 g ai/ha): 0
Plant response rating, Blackgrass ([3]; 62 g ai/ha): 0
Plant response rating, Blackgrass ([3]; 125 g ai/ha): 45
Plant response rating, Blackgrass ([3]; 250 g ai/ha): 60
Plant response rating, Ryegrass, Italian ([4]; 62 g ai/ha): 0
Plant response rating, Ryegrass, Italian ([4]; 125 g ai/ha): 0
Plant response rating, Ryegrass, Italian ([4]; 250 g ai/ha): 30
Plant response rating, Lambsquarters ([5]; 31 g ai/ha): 55
Plant response rating, Lambsquarters ([5]; 62 g ai/ha): 50
Plant response rating, Lambsquarters ([5]; 125 g ai/ha): 65
Plant response rating, Lambsquarters ([5]; 250 g ai/ha): 65
Plant response rating, Ragweed ([6]; 31 g ai/ha): 5
Plant response rating, Ragweed ([6]; 62 g ai/ha): 10
Plant response rating, Ragweed ([6]; 125 g ai/ha): 20
Plant response rating, Ragweed ([6]; 250 g ai/ha): 60
Plant response rating, Foxtail, Giant ([7]; 31 g ai/ha): 90
Plant response rating, Foxtail, Giant ([7]; 62 g ai/ha): 90
Plant response rating, Foxtail, Giant ([7]; 125 g ai/ha): 90
Plant response rating, Foxtail, Giant ([7]; 250 g ai/ha): 95
Plant response rating, Velvetleaf ([8]; 62 g ai/ha): 0
Plant response rating, Velvetleaf ([8]; 125 g ai/ha): 10
Plant response rating, Velvetleaf ([8]; 250 g ai/ha): 50
Plant response rating, Wheat ([9]; 62 g ai/ha): 30
Plant response rating, Wheat ([9]; 125 g ai/ha): 40
Plant response rating, Wheat ([9]; 250 g ai/ha): 60
Plant response rating, Waterhemp ([10]; 62 g ai/ha): 60
Plant response rating, Waterhemp ([10]; 125 g ai/ha): 75
Plant response rating, Waterhemp ([10]; 250 g ai/ha): 85
Plant response rating, Oilseed Rape ([11]; 31 g ai/ha): 30
Plant response rating, Oilseed Rape ([11]; 62 g ai/ha): 30
Plant response rating, Oilseed Rape ([11]; 125 g ai/ha): 20
Plant response rating, Oilseed Rape ([11]; 250 g ai/ha): 60
Plant response rating, Morningglory ([12]; 31 g ai/ha): 0
Plant response rating, Morningglory ([12]; 62 g ai/ha): 0
Plant response rating, Morningglory ([12]; 125 g ai/ha): 20
Plant response rating, Morningglory ([12]; 250 g ai/ha): 10
Plant response rating, Galium ([13]; 31 g ai/ha): 50
Plant response rating, Galium ([13]; 62 g ai/ha): 90
Plant response rating, Galium ([13]; 125 g ai/ha): 90
Plant response rating, Galium ([13]; 250 g ai/ha): 95
Plant response rating, Crabgrass, Large ([14]; 31 g ai/ha): 90
Plant response rating, Crabgrass, Large ([14]; 62 g ai/ha): 90
Plant response rating, Crabgrass, Large ([14]; 125 g ai/ha): 90
Plant response rating, Crabgrass, Large ([14]; 250 g ai/ha): 95
Plant response rating, Pigweed ([15]; 31 g ai/ha): 55
Plant response rating, Pigweed ([15]; 62 g ai/ha): 60
Plant response rating, Pigweed ([15]; 125 g ai/ha): 80
Plant response rating, Pigweed ([15]; 250 g ai/ha): 80
